Assay results published in patent publication US20040053323A1, “Method of screening inducible nitric oxide synthase activation inhibitor” (priority 2000, published 2004).

What was measured:
iNOS [1] = molecular target: T1, iNOS (Mus musculus, UniProt P29477); settings: cited from earlier work
T1 sequence (P29477 1-1144): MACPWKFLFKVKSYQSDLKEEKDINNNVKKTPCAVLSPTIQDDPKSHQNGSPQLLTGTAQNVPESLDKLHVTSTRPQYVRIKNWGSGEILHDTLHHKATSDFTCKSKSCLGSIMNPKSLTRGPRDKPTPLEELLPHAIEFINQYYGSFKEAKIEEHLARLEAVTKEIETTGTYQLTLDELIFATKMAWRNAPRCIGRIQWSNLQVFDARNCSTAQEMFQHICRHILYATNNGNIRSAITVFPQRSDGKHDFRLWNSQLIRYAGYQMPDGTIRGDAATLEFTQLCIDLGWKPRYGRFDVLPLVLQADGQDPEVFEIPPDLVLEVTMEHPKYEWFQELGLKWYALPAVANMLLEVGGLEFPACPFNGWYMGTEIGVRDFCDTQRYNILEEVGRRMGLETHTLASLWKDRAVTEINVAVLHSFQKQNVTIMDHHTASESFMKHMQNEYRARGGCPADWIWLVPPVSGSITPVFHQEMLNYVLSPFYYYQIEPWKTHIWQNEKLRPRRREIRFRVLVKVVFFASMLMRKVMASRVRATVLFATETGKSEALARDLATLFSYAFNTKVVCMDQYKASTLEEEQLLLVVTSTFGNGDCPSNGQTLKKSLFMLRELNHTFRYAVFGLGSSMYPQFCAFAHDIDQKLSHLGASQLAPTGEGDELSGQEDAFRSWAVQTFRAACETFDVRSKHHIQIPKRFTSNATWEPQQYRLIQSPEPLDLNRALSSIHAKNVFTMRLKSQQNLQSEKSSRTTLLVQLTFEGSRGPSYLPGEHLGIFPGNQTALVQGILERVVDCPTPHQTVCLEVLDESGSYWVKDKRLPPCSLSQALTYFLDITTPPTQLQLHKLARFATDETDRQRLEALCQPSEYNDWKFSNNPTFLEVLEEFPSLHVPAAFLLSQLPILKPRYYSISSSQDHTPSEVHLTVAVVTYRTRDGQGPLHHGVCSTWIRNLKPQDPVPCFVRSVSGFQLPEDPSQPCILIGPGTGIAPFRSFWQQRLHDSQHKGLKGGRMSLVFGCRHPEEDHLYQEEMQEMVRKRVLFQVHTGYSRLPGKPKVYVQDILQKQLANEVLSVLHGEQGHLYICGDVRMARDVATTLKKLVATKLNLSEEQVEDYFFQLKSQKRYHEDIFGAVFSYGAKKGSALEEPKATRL

Δ122-iNOSox = molecular target: T2, Δ122-iNOSox (Homo sapiens, UniProt P35228); assay: Binding assay of ^3H-compound A with Δ122-iNOSox (gel filtration mini column, scintillation counting); settings: Δ122-iNOSox protein
T2 construct: genes of the oxygenase domain region (amino acids 1 to 526) by PCR; His tag; made in house; host or cells: E. coli, protease-deficient DE3 strain; vector pTrcHis2 (Invitrogen)
Procedure: A binding assay system for ^3H-compound A (25Ci/mmol) was constructed using Δ122-iNOSox obtained in Example 9. In principle, it is an assay system in which the binding strength of a compound towards iNOS can be analyzed by measuring the amount of ^3H-compound A replaced by various test drugs added to bound Δ122-iNOSox protein and ^3H-compound A (10 nM) . That is, to 100 μL of a Δ122-iNOSox solution that has been diluted to a final concentration of 1 μg/mL with 25 mM Tris-HCl (pH 7.5) containing 150 mM NaCl and 1% CHAPS, 1 μL of 1 μM ^3H-compound A was added and was incubated for 3 hours at 4° C., then the entire amount was applied to a gel filtration mini column for desalting (NICK column; Pharmacia) that was pre-equilibrated with 25 mM Tris-HCl (pH 7.5) containing 150 mM NaCl. Next, 400 μL of the same buffer was added, the eluted solution was mixed with 7 mL of aquasol, and this was measured with a liquid scintillation counter.

iNOS [2] = molecular target: T1, iNOS; assay: iNOS dimer/monomer detection by gel filtration and anti-iNOS dot blotting of LPS/IFN-stimulated RAW264.7 cell extract; type: cell-based; set-up: endogenous in cells; host or cells: RAW264.7 mouse macrophage cells stimulated with LPS and IFN-γ; settings: RAW264.7 cells, LPS/IFN stimulation, compound A added
Procedure: (§1) Mouse macrophage derived RAW264.7 cells (Stuehr D. J. Proc. Natl. Acad. Sci. USA. 1991, 88, 7773; Cancer Res. 1987, 47, 5590) were cultured in Dulbecco's Modified Eagle Medium containing 10% FCS (fetal calf serum) , until there were 2 to 4×10^7 cells in each F75 culture flask (Falcon). Then, lipopolysaccharide (LPS) and interferon-γ (IFN) were added to a final concentration of 4 μg/ml and 16 units/ml, respectively, and cultured overnight in a CO2 incubator (37° C.). 0.1% Trypsin (5 mL) was added to the flask in which the cells were cultured, the cells were detached by an incubation at 37° C. for 5 minutes, and then collected by centrifugation. […]
(§2) Then, 200 μL of that extract was applied to Superdex 200 HR10/30 (flow rate 0.5 mL/min: Amersham Pharmacia Biotech, Sweden) pre-equilibrated with 25 mM Tris-HCl (pH 8.0) containing 150 mM NaCl to perform gel filtration chromatography. Each of the fractions collected every minute were mixed with 7 mL of Aquasol-2 (Packard, USA), and was then measured with a liquid scintillation counter (FIG. 1). ^14C-A used in this experiment was synthesized as follows.
Gel filtration fractions containing compound A binding activity, which were obtained by a method similar to that of Example 2 were analyzed by dot blotting. […]

[3] = molecular target: T3, ^14C-A-bound protein in RAW cells (Mus musculus, UniProt P29477); assay: Dose dependency of ^14C-A binding activity in LPS/IFN-stimulated RAW264.7 cell extract; type: cell-based; settings: RAW264.7 cells, LPS/IFN stimulation
T3 construct: endogenous in cells; host or cells: RAW264.7 mouse macrophage cells stimulated with LPS and IFN-γ
T3 sequence (P29477 1-1144): T1 sequence (P29477 1-1144)
Procedure: as §1, with “centrifugation. To the collected cells (2,000 rpm, 10 minutes), 600 μL of lysis buffer was added, and freeze thawing was repeated three times to disrupt the cells. The supernatant obtained by centrifugation (15,000 rpm, 15 minutes) was collected and this was the cell extract.” for “centrifugation.”
as §2

[4] = molecular target: the molecule itself; assay: gel filtration (Superdex 200) of RAW264.7 cell extract with dot blot detection; homodimer peak

T2 sequence (P35228 123-526 limits assumed, stated change not applied): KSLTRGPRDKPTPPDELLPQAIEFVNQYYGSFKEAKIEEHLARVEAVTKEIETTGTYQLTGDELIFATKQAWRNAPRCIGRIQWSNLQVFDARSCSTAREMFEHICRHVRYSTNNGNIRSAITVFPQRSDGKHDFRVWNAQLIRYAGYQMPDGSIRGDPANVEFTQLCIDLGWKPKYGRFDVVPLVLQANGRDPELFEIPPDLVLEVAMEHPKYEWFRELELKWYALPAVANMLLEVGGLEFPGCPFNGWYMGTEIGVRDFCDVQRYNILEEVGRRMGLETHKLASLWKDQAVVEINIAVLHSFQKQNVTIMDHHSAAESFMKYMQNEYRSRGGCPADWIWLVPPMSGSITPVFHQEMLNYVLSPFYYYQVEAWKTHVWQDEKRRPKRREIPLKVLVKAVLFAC

Clc1ccccc1C(c1ccccc1)(c1ccccc1)n1ccnc1 [clotrimazole]
effect on iNOS enzyme activity and dimerization (iNOS [1]): interfered not only with enzyme activity of iNOS but also with its dimerization

CN(Cc1cccnc1)C(=O)[C@H](Cc1ccccc1)NC(=O)[C@H](Cc1ccccn1)NC(=O)c1cc2ccccc2o1 [compound A]
Hill coefficient (Δ122-iNOSox; Hill plot analysis): 0.971
Kd (Δ122-iNOSox; ^3H-compound A, saturation curve and Scatchard plot): 13.5 nM
iNOS dimerization (dimer peak in dot blotting of gel filtration fractions) (iNOS [2]): the peak corresponding to the dimer had clearly disappeared
radioactivity of cell extract versus added ^14C-A concentration (saturation) [3]: saturation of radioactivity was confirmed between 10^−6 M and 10^−5 M

Clc1ccc(COC(Cn2ccnc2)c2ccc(Cl)cc2Cl)c(Cl)c1 (stereo not shown) [miconazole]
effect on iNOS enzyme activity and dimerization (iNOS [1]): interfered not only with enzyme activity of iNOS but also with its dimerization

B1: iNOS derived from mice (inducible nitrogen oxide synthase from LPS/IFN-stimulated RAW264.7 cells) (enzyme, mouse, UniProt P29477 1-1144, looked up)
chain: T1 sequence (P29477 1-1144)
notes: Endogenous protein in cell extract and gel filtration fractions; It ran as monomer and dimer peaks without compound A and as monomer only with compound A; also called iNOS protein
binding result [4]: binds
